This note sets out measurements from the supplement of paper PMC12137928.

Structures are written as SMILES. Structures can show the parent of a compound that is named as a salt. Some results are limits rather than exact numbers.

In the test the test system is HCT116. As to conditions: 72 h. The essentials: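 HCT116 cells went into 1536-well plates at 250 per well. CellTiter-Glo luminescence was expressed relative to vehicle (0%) and positive control (-100%) and then pattern-corrected. Both IC50 and maximal efficacy were taken from four-parameter Hill fits.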

In the case of `C=CCCCCCCCCC(=O)O[C@H]1CC[C@H]2[C@@H]3CCC4=CC(=O)C=C[C@]4(C)[C@H]3CC[C@]12C` [Boldenone Undecylenate], the IC50 cell viability is over 45.8 µM (ICRF193 0 nM) and over 45.8 µM (ICRF193 200 nM).

Turning to `CC(=O)/C=C/C=C1/C2CCC(C2)C1(C)C` (centres undefined) [Bornelone], the IC50 cell viability by setting is: (ICRF193 0 nM) over 45.8 µM; (ICRF193 200 nM) over 45.8 µM.

`COc1ccccc1Oc1c(NS(=O)(=O)c2ccc(C(C)(C)C)cc2)nc(-c2ncccn2)nc1OCCO` [Bosentan]: the IC50 cell viability by setting is: (ICRF193 0 nM) over 45.8 µM; (ICRF193 200 nM) over 45.8 µM.

In the case of `O=c1[nH]c(=O)n([C@@H]2O[C@H](CO)[C@@H](O)[C@@H]2O)cc1/C=C/Br` [Bravavir], the IC50 cell viability (ICRF193 0 nM) is over 45.8 µM and the IC50 cell viability (ICRF193 200 nM) was over 45.8 µM.

Regarding `CC[N+](C)(C)Cc1ccccc1Br` [Bretylium tosylate], the IC50 cell viability (ICRF193 0 nM) was over 45.8 µM and the IC50 cell viability (ICRF193 200 nM) was over 45.8 µM.

Consider `Brc1c(NC2=NCCN2)ccc2nccnc12` [Brimonidine], for which the IC50 cell viability was over 45.8 µM (ICRF193 0 nM) and over 45.8 µM (ICRF193 200 nM).

Regarding `Cc1ccc(Sc2ccccc2N2CCNCC2)c(C)c1` [Brintellix], the IC50 cell viability was over 45.8 µM (ICRF193 0 nM) and over 45.8 µM (ICRF193 200 nM).

As for `CCN[C@H]1CN(CCCOC)S(=O)(=O)c2sc(S(N)(=O)=O)cc21` [Brinzolamide], the IC50 cell viability is over 45.8 µM (ICRF193 0 nM) and over 45.8 µM (ICRF193 200 nM).

Turning to `CCC[C@@H]1CC(=O)N([C@@H](CC)C(N)=O)C1` [Brivaracetam], the IC50 cell viability was over 45.8 µM (ICRF193 0 nM) and over 45.8 µM (ICRF193 200 nM).

`Nc1c(CC(=O)O)cccc1C(=O)c1ccc(Br)cc1` [Bromfenac sodium sesquihydrate]: the IC50 cell viability runs as follows: (ICRF193 0 nM) over 45.8 µM; (ICRF193 200 nM) over 45.8 µM.

For the compound `CN(Cc1cc(Br)cc(Br)c1N)C1CCCCC1` [Bromhexine hydrochloride], the IC50 cell viability runs as follows: (ICRF193 0 nM) over 45.8 µM; (ICRF193 200 nM) over 45.8 µM.

As for `CC(C)C(Br)C(=O)NC(N)=O` (centres undefined) [Bromisovalum], the IC50 cell viability (ICRF193 0 nM) is over 45.8 µM and the IC50 cell viability (ICRF193 200 nM) is over 45.8 µM.

As to `CN(C)CCOC(c1ccccc1)c1ccc(Br)cc1` (centres undefined) [Bromodiphenhydramine], the IC50 cell viability is over 45.8 µM (ICRF193 0 nM) and over 45.8 µM (ICRF193 200 nM).

Regarding `CN(C)CCC(c1ccc(Br)cc1)c1ccccn1` (centres undefined) [Brompheniramine (maleate)], the IC50 cell viability by setting is: (ICRF193 0 nM) over 45.8 µM; (ICRF193 200 nM) over 45.8 µM.

Regarding `Nc1nc(=O)c(Br)c(-c2ccccc2)[nH]1` [Bropirimine], the IC50 cell viability by setting is: (ICRF193 0 nM) over 45.8 µM; (ICRF193 200 nM) over 45.8 µM.

As to `Cc1nnc2n1-c1sc(Br)cc1C(c1ccccc1Cl)=NC2` [Brotizolam], the IC50 cell viability (ICRF193 0 nM) is over 45.8 µM and the IC50 cell viability (ICRF193 200 nM) is over 45.8 µM.

As for `COc1cc2c(cc1OC)C13CC[N+]4([O-])CC5=CCOC6CC(=O)N2C1C6C5CC34` (centres undefined) [Brucine-N-oxide], the IC50 cell viability is over 45.8 µM (ICRF193 0 nM) and over 45.8 µM (ICRF193 200 nM).

In the case of `CC(C)(S)C(=O)N[C@@H](CS)C(=O)O` [Bucillamine], the IC50 cell viability was over 45.8 µM (ICRF193 0 nM) and over 45.8 µM (ICRF193 200 nM).

For the compound `CCCCC1C(=O)NC(=O)N(C2CCCCC2)C1=O` (centres undefined) [Bucolome], the IC50 cell viability reads like this: (ICRF193 0 nM) over 45.8 µM; (ICRF193 200 nM) over 45.8 µM.

With `CCCC1O[C@@H]2C[C@H]3[C@@H]4CCC5=CC(=O)C=C[C@]5(C)[C@H]4[C@@H](O)C[C@]3(C)[C@]2(C(=O)CO)O1` (some centres undefined) [Budesonide], the IC50 cell viability was over 45.8 µM (ICRF193 0 nM) and over 45.8 µM (ICRF193 200 nM).

As for `CC(C)=C/C(C)=N/Nc1nncc2ccccc12` [Budralazine], the IC50 cell viability was over 45.8 µM (ICRF193 0 nM) and over 45.8 µM (ICRF193 200 nM).

With `CC(C)(C)NCC(O)COc1ccccc1OCC1CCCO1` (centres undefined) [Bufetolol], the IC50 cell viability by setting is: (ICRF193 0 nM) over 45.8 µM; (ICRF193 200 nM) over 45.8 µM.

`CCCCOc1ccc(CC(=O)NO)cc1` [Bufexamac]: the IC50 cell viability is, setting by setting: (ICRF193 0 nM) over 45.8 µM; (ICRF193 200 nM) over 45.8 µM.

For `CCCCNC(=N)NC(=N)N` [Buformin], the IC50 cell viability was over 45.8 µM (ICRF193 0 nM) and over 45.8 µM (ICRF193 200 nM).

As to `CCCCNc1cc(C(=O)O)cc(S(N)(=O)=O)c1Oc1ccccc1` [Bumetanide], the IC50 cell viability was over 45.8 µM (ICRF193 0 nM) and over 45.8 µM (ICRF193 200 nM).

In the case of `Cc1ccc(Cl)c(OCC(O)CNC(C)(C)C)c1` (centres undefined) [Bupranolol], the IC50 cell viability by setting is: (ICRF193 0 nM) over 45.8 µM; (ICRF193 200 nM) over 45.8 µM.

On to `CC(NC(C)(C)C)C(=O)c1cccc(Cl)c1` (centres undefined) [Bupropion hydrochloride], for which the IC50 cell viability is over 45.8 µM (ICRF193 0 nM) and over 45.8 µM (ICRF193 200 nM).
